Laboratory results: patent US20240016781A1, “TREATMENT OF KRAS MUTANT CANCERS” (MEI Pharma, Inc., priority 2020, published 2024)
Like-named read-outs stand apart in the source and are kept apart here.

How the values were obtained:
HCC44 = test: 72-hour CellTiter-Glo 2.0 growth inhibition screen (single agent, 9x9 combination dose matrix); type: cell-based;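 as to Best CI Level: inhibition effect level at which the best CI was calculated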
HPAF-II = test: as above; type: cell-based
LS-513 = test: as above; type: cell-based
TOV-21G = test: as above; type: cell-based
Huh-7 xenografts = test: CIVO intratumoral microinjection, Huh-7 xenografts; type: in vivo; settings: Huh-7 liver cancer model
Excerpt: FIG. 6 depicts the CIVO injection array.
CC3 is not elevated over background levels at any injection site.

MIA PaCa-2 = test: 72-hour CellTiter-Glo 2.0 growth inhibition screen (single agent, 9x9 combination dose matrix); type: cell-based; settings: MIA PaCa-2, Pancreas, 72 h
[1] = HCC44 (KRAS G12C), enhancer + MEI-522 (Voruciclib), 72 h;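 as to Best CI Level: inhibition effect level at which the best CI was calculated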
[2] = HCC44, Lung, Additional Single Agent Responses (inhibition, % I), 72 h
[3] = HCC44, Lung, growth inhibition (GI), AUC, single agent, 72 h
[4] = enhancer combined with MEI-522 (Voruciclib), HCC44 (Lung), 72 hours, inhibition data
[5] = HPAF-II (KRAS G12D), enhancer + MEI-522 (Voruciclib), 72 h;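 as to Best CI Level: inhibition effect level at which the best CI was calculated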
[6] = HPAF-II, Pancreas, Additional Single Agent Responses (inhibition, % I), 72 h
[7] = HPAF-II, Pancreas, growth inhibition (GI), AUC, single agent, 72 h
[8] = enhancer combined with MEI-522 (Voruciclib), HPAF-II (Pancreas), 72 hours, inhibition data
[9] = LS-513 (KRAS G12D), enhancer + MEI-522 (Voruciclib), 72 h;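 as to Best CI Level: inhibition effect level at which the best CI was calculated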
[10] = LS-513, Colorectal, Additional Single Agent Responses (inhibition, % I), 72 h
[11] = LS-513, Colorectal, growth inhibition (GI), AUC, single agent, 72 h
[12] = enhancer combined with MEI-522 (Voruciclib), LS-513 (Colorectal), 72 hours, inhibition data
[13] = TOV-21G (KRAS G13C), enhancer + MEI-522 (Voruciclib), 72 h;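 as to Best CI Level: inhibition effect level at which the best CI was calculated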
[14] = TOV-21G, Ovary, Additional Single Agent Responses (inhibition, % I), 72 h
[15] = TOV-21G, Ovary, growth inhibition (GI), AUC, single agent, 72 h
[16] = enhancer combined with MEI-522 (Voruciclib), TOV-21G (Ovary), 72 hours, inhibition data
[17] = HCC44, Lung, growth inhibition (GI) curve, single agent, 72 h
[18] = HPAF-II, Pancreas, growth inhibition (GI) curve, single agent, 72 h
[19] = LS-513, Colorectal, growth inhibition (GI) curve, single agent, 72 h
[20] = Additional Single Agent Responses (inhibition, % I)
[21] = growth inhibition (GI) curve, single agent
[22] = TOV-21G, Ovary, growth inhibition (GI) curve, single agent, 72 h

For CN1CCN(c2ccc(OC(F)(F)F)c(Nc3ncc4c(n3)-c3c(c(C(N)=O)nn3CCO)CC4)c2)CC1 [Onvansertib], the “Best CI” value (HCC44; [1]) was 0.65, the “Bliss Volume” value (HCC44; [1]) was 4.26 and the HSA volume (HCC44; [1]) was 1.33. The “Loewe Volume” value (HCC44; [1]) was 0.16, the “Synergy Score” value (HCC44; [1]) was 3.96 and the “Response Area” value (HCC44; [2]) was 3.83. For the same compound, the “Response Area” value (HCC44; [3]) was 5.16, the EC50 (HCC44; Homo sapiens, HCC44, 72 h, HCC44, Lung, Additional Single Agent Responses (inhibition, % I), 72 h) was 18.5 nM and the EC50 (HCC44; Homo sapiens, HCC44, 72 h, HCC44, Lung, growth inhibition (GI) curve, single agent, 72 h) was 22 nM. For the same compound, the IC50 (HCC44; Homo sapiens, HCC44, Lung, Additional Single Agent Responses (inhibition, % I), 72 h) was 25.3 nM, the Emax (HCC44; Homo sapiens, HCC44, Lung, Additional Single Agent Responses, 72 h, read-out: Max Response (% I)) was 81% and the GI50 (HCC44; Homo sapiens, HCC44, Lung, growth inhibition (GI) curve, single agent, 72 h) was 18.7 nM. For the same compound, the Emax (HCC44; Homo sapiens, HCC44, Lung, growth inhibition (GI), single agent, 72 h, read-out: Max Response (% GI)) was 112%, the “Best CI” value (HCC44; [4]) was 0.80 and the “Bliss Volume” value (HCC44; [4]) was −0.85. The HSA volume (HCC44; [4]) was 0.68, the “Loewe Volume” value (HCC44; [4]) was −0.34 and the “Synergy Score” value (HCC44; [4]) was 0.67. For the same compound, the Best CI Level (HCC44; enhancer combined with MEI-522 (Voruciclib), HCC44 (Lung), 72 hours, inhibition data, unit assumed) was 20%, the “Best CI” value (HPAF-II; [5]) was 0.70 and the “Bliss Volume” value (HPAF-II; [5]) was −0.18. For the same compound, the HSA volume (HPAF-II; [5]) was 0.48, the “Loewe Volume” value (HPAF-II; [5]) was −0.22 and the “Synergy Score” value (HPAF-II; [5]) was 1.29. The “Response Area” value (HPAF-II; [6]) was 2.97, the “Response Area” value (HPAF-II; [7]) was 3.98 and the EC50 (HPAF-II; Homo sapiens, HPAF-II, 72 h, Pancreas, Additional Single Agent Responses (inhibition, % I)) was 20.9 nM. It also gave an EC50 (HPAF-II; Homo sapiens, HPAF-II, 72 h, Pancreas, growth inhibition (GI) curve, single agent) of 21 nM, an IC50 (HPAF-II; Homo sapiens, HPAF-II, Pancreas, Additional Single Agent Responses (inhibition, % I), 72 h) of 35.9 nM and an Emax (HPAF-II; Homo sapiens, HPAF-II, Pancreas, Additional Single Agent Responses, 72 h, read-out: Max Response (% I)) of 65%. For the same compound, the GI50 (HPAF-II; Homo sapiens, HPAF-II, Pancreas, growth inhibition (GI) curve, single agent, 72 h) was 24.2 nM, the Emax (HPAF-II; Homo sapiens, HPAF-II, Pancreas, growth inhibition (GI), single agent, 72 h, read-out: Max Response (% GI)) was 87% and the “Best CI” value (HPAF-II; [8]) was 0.85. For the same compound, the “Bliss Volume” value (HPAF-II; [8]) was −1.20, the HSA volume (HPAF-II; [8]) was 0.37 and the “Loewe Volume” value (HPAF-II; [8]) was −0.12. For the same compound, the “Synergy Score” value (HPAF-II; [8]) was 0.74, the Best CI Level (HPAF-II; enhancer combined with MEI-522 (Voruciclib), HPAF-II (Pancreas), 72 hours, inhibition data, unit assumed) was 20% and the EC50 (LS-513; Homo sapiens, LS-513, 72 h, LS-513, Colorectal, Additional Single Agent Responses (inhibition, % I), 72 h) was 49.4 nM. It also gave an EC50 (LS-513; Homo sapiens, LS-513, 72 h, LS-513, Colorectal, growth inhibition (GI) curve, single agent, 72 h) of 49.4 nM, an IC50 (LS-513; Homo sapiens, LS-513, Colorectal, Additional Single Agent Responses (inhibition, % I), 72 h) of 61.6 nM and an Emax (LS-513; Homo sapiens, LS-513, Colorectal, Additional Single Agent Responses, 72 h, read-out: Max Response (% I)) of 79%. For the same compound, the GI50 (LS-513; Homo sapiens, LS-513, Colorectal, growth inhibition (GI) curve, single agent, 72 h) was 51.7 nM, the Emax (LS-513; Homo sapiens, LS-513, Colorectal, growth inhibition (GI), single agent, 72 h, read-out: Max Response (% GI)) was 97% and the “Best CI” value (LS-513; [9]) was 0.96. The “Bliss Volume” value (LS-513; [9]) was 0.53, the HSA volume (LS-513; [9]) was −0.64 and the “Loewe Volume” value (LS-513; [9]) was −1.49. For the same compound, the “Synergy Score” value (LS-513; [9]) was 2.51, the “Response Area” value (LS-513; [10]) was 3.29 and the “Response Area” value (LS-513; [11]) was 4.03. For the same compound, the “Best CI” value (LS-513; [12]) was 0.90, the “Best CI Level” value (LS-513; [12]) was 20 and the “Bliss Volume” value (LS-513; [12]) was −2.22. For the same compound, the HSA volume (LS-513; [12]) was −0.87, the “Loewe Volume” value (LS-513; [12]) was −1.32 and the “Synergy Score” value (LS-513; [12]) was 0.70. It also gave an EC50 (TOV-21G; Homo sapiens, TOV21G, 72 h, TOV-21G, Ovary, Additional Single Agent Responses (inhibition, % I)) of 28.1 nM, an EC50 (TOV-21G; Homo sapiens, TOV21G, 72 h, TOV-21G, Ovary, growth inhibition (GI) curve, single agent) of 34.2 nM and an IC50 (TOV-21G; Homo sapiens, TOV21G, TOV-21G, Ovary, Additional Single Agent Responses (inhibition, % I), 72 h) of 31.6 nM. For the same compound, the Emax (TOV-21G; Homo sapiens, TOV21G, TOV-21G, Ovary, Additional Single Agent Responses, 72 h, read-out: Max Response (% I)) was 86%, the GI50 (TOV-21G; Homo sapiens, TOV21G, TOV-21G, Ovary, growth inhibition (GI) curve, single agent, 72 h) was 26.5 nM and the Emax (TOV-21G; Homo sapiens, TOV21G, TOV-21G, Ovary, growth inhibition (GI), single agent, 72 h, read-out: Max Response (% GI)) was 143%. For the same compound, the “Best CI” value (TOV-21G; [13]) was 0.40, the “Bliss Volume” value (TOV-21G; [13]) was 5.55 and the HSA volume (TOV-21G; [13]) was −0.24. For the same compound, the “Loewe Volume” value (TOV-21G; [13]) was −0.71, the “Synergy Score” value (TOV-21G; [13]) was 1.56 and the “Response Area” value (TOV-21G; [14]) was 3.84. The “Response Area” value (TOV-21G; [15]) was 6.09, the “Best CI” value (TOV-21G; [16]) was 0.56 and the “Best CI Level” value (TOV-21G; [16]) was 30. For the same compound, the “Bliss Volume” value (TOV-21G; [16]) was 0.52, the HSA volume (TOV-21G; [16]) was 0.33 and the “Loewe Volume” value (TOV-21G; [16]) was 0.43. The “Synergy Score” value (TOV-21G; [16]) was 0.98 and the “apoptotic cells (CC3)” value (Huh-7 xenografts) was “do not result in an increase in apoptotic cells”.
CN1CC[C@@H](c2c(O)cc(O)c3c(=O)cc(-c4ccc(C(F)(F)F)cc4Cl)oc23)[C@@H]1CO [Voruciclib, (+)-trans-2-(2-Chloro-4-trifluoromethylphenyl)-5,7-dihydroxy-8-(2-hydroxymethyl-1-methylpyrrolidin-3-yl)-chromen-4-one] was tested, and the “apoptotic cells (CC3)” value (Huh-7 xenografts) was “do not result in an increase in apoptotic cells”.
With CN1CC[C@@H](c2c(O)cc(O)c3c(=O)cc(-c4ccc(C(F)(F)F)cc4Cl)oc23)[C@@H]1CO [MEI-522(Voruciclib)] the EC50 (HCC44; [2]) was 770 nM, the IC50 (HCC44; [2]) was 829 nM and the “Response Area” value (HCC44; [2]) was 2.85. For the same compound, the “Max Response (% I)” value (HCC44; HCC44, Lung, Additional Single Agent Responses, 72 h) was 91 % I, the EC50 (HCC44; [17]) was 1210 nM and the GI50 (HCC44; [17]) was 730 nM. For the same compound, the “Response Area” value (HCC44; [3]) was 4.97, the “Max Response (% GI)” value (HCC44; HCC44, Lung, growth inhibition (GI), single agent, 72 h) was 161 % GI and the EC50 (HPAF-II; [6]) was 1310 nM. For the same compound, the IC50 (HPAF-II; [6]) was 1880 nM, the “Response Area” value (HPAF-II; [6]) was 2.09 and the “Max Response (% I)” value (HPAF-II; HPAF-II, Pancreas, Additional Single Agent Responses, 72 h) was 72 % I. For the same compound, the EC50 (HPAF-II; [18]) was 1330 nM, the GI50 (HPAF-II; [18]) was 1340 nM and the “Response Area” value (HPAF-II; [7]) was 2.84. For the same compound, the “Max Response (% GI)” value (HPAF-II; HPAF-II, Pancreas, growth inhibition (GI), single agent, 72 h) was 97 % GI, the EC50 (LS-513; [10]) was 549 nM and the IC50 (LS-513; [10]) was 633 nM. For the same compound, the “Response Area” value (LS-513; [10]) was 2.94, the “Max Response (% I)” value (LS-513; LS-513, Colorectal, Additional Single Agent Responses, 72 h) was 90 % I and the EC50 (LS-513; [19]) was 878 nM. For the same compound, the GI50 (LS-513; [19]) was 529 nM, the “Response Area” value (LS-513; [11]) was 4.51 and the “Max Response (% GI)” value (LS-513; LS-513, Colorectal, growth inhibition (GI), single agent, 72 h) was 147 % GI. For the same compound, the EC50 (MIA PaCa-2; [20]) was 894 nM, the IC50 (MIA PaCa-2; [20]) was 1070 nM and the “Response Area” value (MIA PaCa-2; [20]) was 2.64. The “Max Response (% I)” value (MIA PaCa-2; Additional Single Agent Responses) was 85 % I, the EC50 (MIA PaCa-2; [21]) was 1130 nM and the GI50 (MIA PaCa-2; [21]) was 868 nM. For the same compound, the “Response Area” value (MIA PaCa-2; growth inhibition (GI), AUC, single agent) was 3.63, the “Max Response (% GI)” value (MIA PaCa-2; growth inhibition (GI), single agent) was 116 % GI and the EC50 (TOV-21G; [14]) was 1660 nM. For the same compound, the IC50 (TOV-21G; [14]) was 1730 nM, the “Response Area” value (TOV-21G; [14]) was 2.63 and the “Max Response (% I)” value (TOV-21G; TOV-21G, Ovary, Additional Single Agent Responses, 72 h) was 95 % I. The EC50 (TOV-21G; [22]) was 1980 nM, the GI50 (TOV-21G; [22]) was 1570 nM and the “Response Area” value (TOV-21G; [15]) was 4.89. The “Max Response (% GI)” value (TOV-21G; TOV-21G, Ovary, growth inhibition (GI), single agent, 72 h) was 181 % GI.
